Experimental data reported in PubChem BioAssay AID330 (DTP/NCI, 2004).
Several values for one entry are separate records, joined by “and”; a condition that tells them apart may be missing. Equal values may be shown once. Inconclusive results and toxic doses are left out. Square brackets hold non-standard residues; d marks the D form. Peptide text beside a SMILES is read from it. * marks the point of attachment. ξ: configuration not given here. Ac5c = NC1(C(=O)O)CCCC1; Cbz = O=C(OCc1ccccc1)*; ξV = CC(C)C(N)C(=O)O

System: P388 leukemia ip, CD2F1 mice, survival T/C
Test: NCI In Vivo Anticancer Drug Screen. Data for tumor model P388 Leukemia (intraperitoneal) in CD2F1 (CDF1) mice
Settings: endpoint: median survival time, higher = longer survival
In short: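 Mice carrying the transplanted tumor received test compound or vehicle. Survival was recorded in each group, and the value is the treated-group measurement divided by that of the vehicle-treated control group.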

[1] = dose: 60.0 mg/kg/injection, schedule: Q01DX005 (ip), vehicle: saline with Tween-80
[2] = dose: 120.0 mg/kg/injection, schedule: Q01DX005 (ip), vehicle: saline with Tween-80
[3] = dose: 240.0 mg/kg/injection, schedule: Q01DX005 (ip), vehicle: saline with Tween-80
[4] = dose: 50.0 mg/kg/injection, schedule: Q01DX009 (ip), vehicle: saline
[5] = dose: 100.0 mg/kg/injection, schedule: Q01DX009 (ip), vehicle: saline
[6] = dose: 200.0 mg/kg/injection, schedule: Q01DX009 (ip), vehicle: saline
[7] = dose: 50.0 mg/kg/injection, schedule: Q01DX009 (ip), vehicle: Klucel (hydroxypropylcellulose) (HPC)
[8] = dose: 100.0 mg/kg/injection, schedule: Q01DX009 (ip), vehicle: Klucel (hydroxypropylcellulose) (HPC)
[9] = dose: 50.0 mg/kg/injection, schedule: Q01DX009 (ip), vehicle: saline with Tween-80
[10] = dose: 25.0 mg/kg/injection, schedule: Q01DX005 (ip), vehicle: Klucel (hydroxypropylcellulose) (HPC)
[11] = dose: 50.0 mg/kg/injection, schedule: Q01DX005 (ip), vehicle: Klucel (hydroxypropylcellulose) (HPC)
[12] = dose: 100.0 mg/kg/injection, schedule: Q01DX005 (ip), vehicle: Klucel (hydroxypropylcellulose) (HPC)
[13] = dose: 200.0 mg/kg/injection, schedule: Q01DX005 (ip), vehicle: Klucel (hydroxypropylcellulose) (HPC)
[14] = dose: 50.0 mg/kg/injection, schedule: Q01DX005 (ip), vehicle: saline with Tween-80
[15] = dose: 100.0 mg/kg/injection, schedule: Q04DX003 (ip), vehicle: saline with Tween-80

In the case of `O=C(O)/C(Cl)=C(/Cl)C(=O)C(Cl)(Cl)Cl`, the T/C (dose: 3.13 mg/kg/injection, schedule: Q01DX009 (ip), vehicle: distilled water + Tween-80) is reported as 108 % of control, the T/C (dose: 25.0 mg/kg/injection, schedule: Q01DX009 (ip), vehicle: distilled water + Tween-80) is reported as 155 % of control and the T/C (dose: 50.0 mg/kg/injection, schedule: Q01DX009 (ip), vehicle: distilled water + Tween-80) is reported as 155 % of control.

`N=c1nc(N)nc2c3cc(Br)ccc3nnn12` was tested, and the T/C [1] was 113 % of control, the T/C [2] was 117 % of control and the T/C [3] was 108 % of control.

In the case of `Cc1cc2nc(C=C(C(F)(F)F)C(F)(F)F)oc2cc1C`, the T/C (dose: 1.56 mg/kg/injection, schedule: Q01DX009 (ip), vehicle: saline with Tween-80) is reported as 98 % of control, the T/C (dose: 3.13 mg/kg/injection, schedule: Q01DX009 (ip), vehicle: saline with Tween-80) is reported as 98 % of control and the T/C (dose: 6.25 mg/kg/injection, schedule: Q01DX009 (ip), vehicle: saline with Tween-80) is reported as 95 % of control. The T/C (dose: 12.5 mg/kg/injection, schedule: Q01DX009 (ip), vehicle: saline with Tween-80) was 93 % of control.

In the case of `CC(=O)NC(Cc1ccsc1)C(=O)O` (configuration not stated), the T/C [4] is reported as 108 % of control, the T/C [5] is reported as 92 % of control and the T/C [6] is reported as 99 % of control.

For `CC(C(=O)c1ccc(Cl)cc1)C1(O)C(=O)Nc2ccccc21` (configuration not stated), the T/C [1] was 108 % of control, the T/C [2] was 111 % of control and the T/C [3] was 94 % of control.

`c1ccc2cc(SCCCN3CCOCC3)ccc2c1` was tested, and the T/C (dose: 50.0 mg/kg/injection, schedule: Q01DX009 (ip), vehicle: saline sonified) was 100 % of control, the T/C (dose: 100.0 mg/kg/injection, schedule: Q01DX009 (ip), vehicle: saline sonified) was 104 % of control and the T/C (dose: 200.0 mg/kg/injection, schedule: Q01DX009 (ip), vehicle: saline sonified) was 100 % of control.

In the case of `COc1ccc(C(=O)C2C(=O)C(=O)OC2C2OC(=O)C(=O)C2C(=O)c2ccc(OC)cc2)cc1` (configuration not stated), the T/C (dose: 30.0 mg/kg/injection, schedule: Q01DX005 (ip), vehicle: saline) is reported as 100 % of control, the T/C (dose: 60.0 mg/kg/injection, schedule: Q01DX005 (ip), vehicle: saline) is reported as 94 % of control and 95 % of control and the T/C (dose: 120.0 mg/kg/injection, schedule: Q01DX005 (ip), vehicle: saline) is reported as 93 % of control.

`CC(=O)C(Cl)c1ccccc1Cl` (configuration not stated) was tested, and the T/C (dose: 25.0 mg/kg/injection, schedule: Q01DX009 (ip), vehicle: Klucel (hydroxypropylcellulose) (HPC)) was 111 % of control, the T/C [7] was 107 % of control and 113 % of control and the T/C [8] was 109 % of control.

`OC(CNc1ccccc1Cl)COc1ccc(Cl)cc1Cl` (configuration not stated) was tested, and the T/C [9] was 94 % of control, the T/C (dose: 100.0 mg/kg/injection, schedule: Q01DX009 (ip), vehicle: saline with Tween-80) was 95 % of control and the T/C (dose: 200.0 mg/kg/injection, schedule: Q01DX009 (ip), vehicle: saline with Tween-80) was 106 % of control.

With `Oc1c(Cl)cc(Cl)cc1CN1CCCCC1` the T/C (dose: 50.0 mg/kg/injection, schedule: Q01DX009 (ip), vehicle: suspension in saline) was 91 % of control, the T/C (dose: 100.0 mg/kg/injection, schedule: Q01DX009 (ip), vehicle: suspension in saline) was 98 % of control and the T/C (dose: 200.0 mg/kg/injection, schedule: Q01DX009 (ip), vehicle: suspension in saline) was 91 % of control.

In the case of `CCCCNC(=O)C(C)OC(=O)C(CC)CCCC` (configuration not stated), the T/C [10] is reported as 105 % of control, the T/C [11] is reported as 100 % of control and the T/C [12] is reported as 102 % of control. The T/C [13] was 105 % of control.

In the case of `CCOC(=O)c1cc2c(=O)c3c(ccc4ccccc43)oc2n(C)c1=O`, the T/C (dose: 12.5 mg/kg/injection, schedule: Q01DX005 (ip), vehicle: saline with Tween-80) is reported as 96 % of control, the T/C (dose: 25.0 mg/kg/injection, schedule: Q01DX005 (ip), vehicle: saline with Tween-80) is reported as 94 % of control and the T/C [14] is reported as 88 % of control.

For `OCCCN1CNC(=S)NC1`, the T/C (dose: 12.5 mg/kg/injection, schedule: Q01DX009 (ip), vehicle: saline) was 106 % of control and 111 % of control, the T/C (dose: 25.0 mg/kg/injection, schedule: Q01DX009 (ip), vehicle: saline) was 100 % of control and 105 % of control and the T/C [4] was 100 % of control and 97 % of control. For the same molecule, the T/C [5] was 99 % of control and 102 % of control.

With `N=c1nc(-c2ccccc2)c(-c2ccccc2)nn1CC(=O)c1ccccc1` the T/C [11] was 112 % of control, the T/C [12] was 101 % of control and the T/C [13] was 94 % of control.

`Cc1nc2c([N+](=O)[O-])c(NCc3ccccc3)c([N+](=O)[O-])cc2[nH]1` was tested, and the T/C [15] was 97 % of control, the T/C (dose: 200.0 mg/kg/injection, schedule: Q04DX003 (ip), vehicle: saline with Tween-80) was 95 % of control and the T/C (dose: 400.0 mg/kg/injection, schedule: Q04DX003 (ip), vehicle: saline with Tween-80) was 101 % of control.

For `C[N+](C)(C)CCOP(=O)([O-])OC1CCCC1`, the T/C [4] was 103 % of control, the T/C [5] was 100 % of control and the T/C [6] was 105 % of control.

`CN1CCN(CCCN2c3ccccc3Sc3ccc(C(F)(F)F)cc32)CC1` was tested, and the T/C (dose: 25.0 mg/kg/injection, schedule: Q01DX009 (ip), vehicle: saline with Tween-80) was 109 % of control, the T/C [9] was 118 % of control and the T/C (dose: 66.0 mg/kg/injection, schedule: Q04DX003 (ip), vehicle: saline with Tween-80) was 163 % of control. The T/C [15] was 150 % of control.

In the case of `NC(N)=NCCCC(N)C(=O)NC(CCCN=C(N)N)C(=O)O` (stereo not drawn) (H-Arg-Arg-OH; configuration not given here), the T/C [11] is reported as 103 % of control, the T/C [12] is reported as 100 % of control and the T/C [13] is reported as 100 % of control.

For `NC(Cc1cnc[nH]1)C(=O)O` (configuration not stated), the T/C [4] was 110 % of control, the T/C [5] was 107 % of control and the T/C [6] was 110 % of control.

In the case of `CCCCCCCCCCCCCCOC(=O)c1ccc(O)cc1`, the T/C [7] is reported as 94 % of control, the T/C [8] is reported as 101 % of control and the T/C (dose: 200.0 mg/kg/injection, schedule: Q01DX009 (ip), vehicle: Klucel (hydroxypropylcellulose) (HPC)) is reported as 89 % of control.

For `OC1(C2NCCc3ccccc32)CCN(CCc2ccccc2)CC1` (configuration not stated), the T/C [7] was 87 % of control and the T/C [8] was 94 % of control.

`CC1NC(CCCCCCCCCCC2=CC(CCCCCCCCCCC3CCC(O)C(C)N3)C3CCCN3C2)CCC1O` (configuration not stated) was tested, and the T/C (dose: 0.93 mg/kg/injection, schedule: Q01DX005 (ip), vehicle: water) was 95 % of control, the T/C (dose: 1.87 mg/kg/injection, schedule: Q01DX005 (ip), vehicle: water) was 96 % of control and the T/C (dose: 3.75 mg/kg/injection, schedule: Q01DX005 (ip), vehicle: water) was 91 % of control and 92 % of control and 94 % of control. The T/C (dose: 7.5 mg/kg/injection, schedule: Q01DX005 (ip), vehicle: water) was 93 % of control.

For `CC(C)C(NC(=O)C1(NC(=O)OCc2ccccc2)CCCC1)C(=O)O` (configuration not stated) (Cbz-[Ac5c]-[ξV]-OH), the T/C [14] was 99 % of control, the T/C (dose: 100.0 mg/kg/injection, schedule: Q01DX005 (ip), vehicle: saline with Tween-80) was 96 % of control and the T/C (dose: 200.0 mg/kg/injection, schedule: Q01DX005 (ip), vehicle: saline with Tween-80) was 99 % of control.

For `CCOC(=O)CCCCCOCOC`, the T/C (dose: 100.0 mg/kg/injection, schedule: Q01DX001 (ip), vehicle: saline with Tween-80) was 106 % of control, the T/C (dose: 200.0 mg/kg/injection, schedule: Q01DX001 (ip), vehicle: saline with Tween-80) was 98 % of control and the T/C (dose: 400.0 mg/kg/injection, schedule: Q01DX001 (ip), vehicle: saline with Tween-80) was 106 % of control.

With `C=CC(C)(C)C12CC3C(=O)Nc4ccccc4C(=O)N3C1Nc1ccccc12` (configuration not stated) the T/C (dose: 25.0 mg/kg/injection, schedule: Q01DX005 (ip), vehicle: distilled water + Tween-80 + alcohol) was 95 % of control, the T/C (dose: 50.0 mg/kg/injection, schedule: Q01DX005 (ip), vehicle: distilled water + Tween-80 + alcohol) was 97 % of control and the T/C (dose: 100.0 mg/kg/injection, schedule: Q01DX005 (ip), vehicle: distilled water + Tween-80 + alcohol) was 103 % of control. The T/C (dose: 200.0 mg/kg/injection, schedule: Q01DX005 (ip), vehicle: distilled water + Tween-80 + alcohol) was 98 % of control.

`Cc1cc[n+](C2=C(Nc3c(C)cccc3C)C(=O)c3ccccc3C2=O)cc1` was tested, and the T/C [1] was 102 % of control, the T/C [2] was 102 % of control and the T/C [3] was 114 % of control.

In the case of `NC1=C(Br)C(=O)c2[nH]c(=O)[nH]c(=O)c2C1=O`, the T/C (dose: 6.25 mg/kg/injection, schedule: Q01DX005 (ip), vehicle: Klucel (hydroxypropylcellulose) (HPC)) is reported as 98 % of control, the T/C (dose: 12.5 mg/kg/injection, schedule: Q01DX005 (ip), vehicle: Klucel (hydroxypropylcellulose) (HPC)) is reported as 100 % of control and the T/C [10] is reported as 102 % of control. The T/C [11] was 100 % of control.
